Laboratory results: patent US12655150B2 (Cedilla Therapeutics, Inc., priority 2021, dated 2026)

Tested on: NCI-H226
Assay: 72H TEAD Proliferation Assay (Cell Titer Glo 2.0)
Format: cell-based
Conditions: Homo sapiens, NCI-H226, 72 h, CTG 2.0, cell line not given (NCI-H226 responsive, NCI-H28 non-responsive)
Procedure, shortened: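 Growth read-out is ATP luminescence (CellTiter-Glo 2.0) after 72 h compound exposure, corrected for no-CTG background and day-0 values, with GI50 from nonlinear regression. Sensitive line NCI-H226 (NF2-deficient); non-responsive NCI-H28 (NF2 wild type) distinguishes TEAD-driven from nonspecific growth inhibition.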

Compound | GI50 [µM]
C=CC(=O)Nc1ccc2ncc(-c3ccc(C(C)(C)C)cc3)nc2c1 [I-92, N-(3-(4-(tert-butyl)phenyl)quinoxalin-6-yl)acrylamide] | 1 to 5
COc1cc(-c2ccc(C(F)(F)F)cc2)nc2cc(C(=O)N3CCC3CO)ccc12 (single isomer, unassigned) [I-372, (2-(hydroxymethyl)azetidin-1-yl) (4-methoxy-2-(4-(trifluoromethyl)phenyl)quinolin-7-yl)methanone] | 1 to 5
COc1cc(-c2ccc(C(F)(F)F)cc2)nc2cc(C(=O)N[C@@H](CO)c3ccncc3)ccc12 [I-366, (R)—N-(2-hydroxy-1-(pyridin-4-yl)ethyl)-4-methoxy-2-(4-(trifluoromethyl)phenyl)quinoline-7-carboxamide] | ≤ 1
CC[C@H](CO)NC(=O)c1ccc2c(C)cc(-c3ccc(C(F)(F)F)cc3)nc2c1 [I-265, (R)—N-(1-hydroxybutan-2-yl)-4-methyl-2-(4-(trifluoromethyl)phenyl)quinoline-7-carboxamide] | ≤ 1
C=CC(=O)NCc1cc2ccc(F)cc2c(-c2ccc(C(F)(F)F)cc2)n1 [I-295, N-((7-fluoro-1-(4-(trifluoromethyl)phenyl)isoquinolin-3-yl)methyl)acrylamide] | ≤ 1
C[C@@H](CO)NC(=O)c1ccc2c(c1)nc(-c1ccc(C(C)(C)C)cc1)c1cccn12 [I-190, (S)-4-(4-(tert-butyl)phenyl)-N-(1-hydroxypropan-2-yl)pyrrolo[1,2-a]quinoxaline-7-carboxamide] | 1 to 5
O=C(O)c1ccc2c(c1)nc(-c1ccncc1)c1cccn12 [I-47, 4-(Pyridin-4-yl)pyrrolo[1,2-a]quinoxaline-7-carboxylic acid] | > 10
C=CC(=O)NCc1nc(-c2ccc(C(F)(F)F)cc2)c2ccccc2n1 [I-167, N-((4-(4-(trifluoromethyl)phenyl)quinazolin-2-yl)methyl)acrylamide] | ≤ 1
COc1cc(-c2ccc(C(F)(F)F)cc2)nc2cc(C(=O)N[C@@H](CO)Cc3ccccc3)ccc12 [I-369, (R)—N-(1-hydroxy-3-phenylpropan-2-yl)-4-methoxy-2-(4-(trifluoromethyl)phenyl)quinoline-7-carboxamide] | ≤ 1
CN(CCC(F)(F)F)c1nc2cc(C(=O)O)ccc2n2cccc12 [I-126, 4-(Methyl(3,3,3-trifluoropropyl)amino)pyrrolo[1,2-a]quinoxaline-7-carboxylic acid] | > 10
O=C(O)c1ccc2c(c1)nc(N1CCC3(CC1)CC3(F)F)c1cccn12 [I-36, 4-(1,1-Difluoro-6-azaspiro[2.5]octan-6-yl)pyrrolo[1,2-a]quinoxaline-7-carboxylic acid] | ≤ 1

Now from value to compound:

GI50 [µM] | Compound
≤ 1 | C=CC(=O)NCC(=C)c1cn2ccnc2c(-c2ccc(C(F)(F)F)cc2)n1 [I-250, N-(2-(8-(4-(trifluoromethyl)phenyl)imidazo[1,2-a]pyrazin-6-yl)allyl)acrylamide]
1 to 5 | CS(=O)(=O)NCc1cn2cccc2c(-c2ccc(C(F)(F)F)cc2)n1 [I-320, N-((1-(4-(trifluoromethyl)phenyl)pyrrolo[1,2-a]pyrazin-3-yl)methyl)methanesulfonamide]
≤ 1 | C=CC(=O)N1CC(c2cn3ccnc3c(-c3ccc(C(F)(F)F)cc3)n2)C1 [I-245, 1-(3-(8-(4-(Trifluoromethyl)phenyl)imidazo[1,2-a]pyrazin-6-yl)azetidin-1-yl)prop-2-en-1-one]
> 10 | COC(=O)/C=C/c1cn2ccnc2c(-c2ccc(C(C)(C)C)cc2)n1 [I-151, Methyl (E)-3-(8-(4-(tert-butyl)phenyl)imidazo[1,2-a]pyrazin-6-yl)acrylate]
5 to 10 | O=C(O)C1CCN(c2cn3ccnc3c(-c3ccc(C(F)(F)F)cc3)n2)C1 (centres unmarked) [I-234, 1-(8-(4-(Trifluoromethyl)phenyl)imidazo[1,2-a]pyrazin-6-yl)pyrrolidine-3-carboxylic acid]
1 to 5 | C=CC(=O)NCc1nc(-c2ccc(C(F)(F)F)cc2)n2cccnc12 [I-438, N-((6-(4-(trifluoromethyl)phenyl)imidazo[1,5-a]pyrimidin-8-yl)methyl)acrylamide]
